In PubChem BioAssay AID256 (DTP/NCI, 2004):
Where “and” joins values, the source holds several entries; their conditions need not be identical. Identical values can stand only once. Inconclusive results and toxic doses are left out. Rule for the calls: active = survival T/C of 150% or more; inactive = T/C below 125% in these data.

System: CD2F1 mice, L1210 leukemia ip, survival T/C
Experiment: NCI In Vivo Anticancer Drug Screen. Data for tumor model L1210 Leukemia (intraperitoneal) in CD2F1 (CDF1) mice
Conditions: higher = longer survival
Procedure, shortened: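 Implant tumor; dose compound or vehicle; measure endpoint in both groups; report treated divided by control.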

[1] = endpoint: mean survival time, dose: 100.0 mg/kg/injection, schedule: Q01DX009 (ip), vehicle: saline with Tween-80
[2] = endpoint: mean survival time, dose: 100.0 mg/kg/injection, schedule: Q04DX003 (ip), vehicle: saline with Tween-80
[3] = endpoint: mean survival time, dose: 200.0 mg/kg/injection, schedule: Q01DX009 (ip), vehicle: saline with Tween-80
[4] = endpoint: mean survival time, dose: 200.0 mg/kg/injection, schedule: Q04DX003 (ip), vehicle: saline with Tween-80
[5] = endpoint: mean survival time, dose: 400.0 mg/kg/injection, schedule: Q04DX003 (ip), vehicle: saline with Tween-80
[6] = endpoint: mean survival time, dose: 100.0 mg/kg/injection, schedule: Q04DX003 (ip), vehicle: saline
[7] = endpoint: mean survival time, dose: 200.0 mg/kg/injection, schedule: Q04DX003 (ip), vehicle: saline
[8] = endpoint: mean survival time, dose: 400.0 mg/kg/injection, schedule: Q01DX009 (ip), vehicle: saline with Tween-80
[9] = endpoint: mean survival time, dose: 400.0 mg/kg/injection, schedule: Q04DX003 (ip), vehicle: saline
[10] = endpoint: mean survival time, dose: 100.0 mg/kg/injection, schedule: Q01DX001 (ip), vehicle: saline with Tween-80
[11] = endpoint: mean survival time, dose: 200.0 mg/kg/injection, schedule: Q01DX001 (ip), vehicle: saline with Tween-80
[12] = endpoint: mean survival time, dose: 400.0 mg/kg/injection, schedule: Q01DX001 (ip), vehicle: saline with Tween-80
[13] = endpoint: mean survival time, dose: 50.0 mg/kg/injection, schedule: Q01DX009 (ip), vehicle: saline with Tween-80

Measured: T/C

CCOc1ccc(Nc2ncnc3nc[nH]c23)cc1CN(CCCl)CCCl
inactive: endpoint: mean survival time, dose: 2.0 mg/kg/injection, schedule: Q01DX009 (ip), vehicle: saline sonified 116 % of control | endpoint: mean survival time, dose: 4.0 mg/kg/injection, schedule: Q01DX009 (ip), vehicle: saline sonified 117 % of control | endpoint: mean survival time, dose: 8.0 mg/kg/injection, schedule: Q01DX009 (ip), vehicle: saline sonified 116 % of control

O=C(O)c1ccc(OCCOc2ccccc2)cc1
inactive: endpoint: mean survival time, dose: 66.0 mg/kg/injection, schedule: Q04DX003 (ip), vehicle: saline sonified 101 % of control | endpoint: mean survival time, dose: 100.0 mg/kg/injection, schedule: Q04DX003 (ip), vehicle: saline sonified 96 % of control | endpoint: mean survival time, dose: 150.0 mg/kg/injection, schedule: Q04DX003 (ip), vehicle: saline sonified 107 % of control

CCCCCCCCCCCCCCCC(=O)N(CCCN)C(C)(C)CCC(C)(C)N(CCCN)C(=O)CCCCCCCCCCCCCCC
inactive: endpoint: mean survival time, dose: 1.56 mg/kg/injection, schedule: Q01DX009 (ip), vehicle: water 106 % of control | endpoint: mean survival time, dose: 3.13 mg/kg/injection, schedule: Q01DX009 (ip), vehicle: water 98 % of control | endpoint: mean survival time, dose: 6.25 mg/kg/injection, schedule: Q01DX009 (ip), vehicle: water 104 % of control | endpoint: mean survival time, dose: 12.5 mg/kg/injection, schedule: Q01DX009 (ip), vehicle: water 102 % of control | endpoint: mean survival time, dose: 25.0 mg/kg/injection, schedule: Q01DX009 (ip), vehicle: water 89 % of control and 95 % of control

CC(C)c1ccc(C2CCCCC2O)cc1 (stereo not given)
inactive: [1] 89 % of control | [2] 105 % of control | [3] 92 % of control | [4] 91 % of control | [5] 94 % of control

COc1ccc(N=C(c2ccccc2)c2ccccc2)cc1
inactive: [1] 95 % of control | [6] 89 % of control | [3] 97 % of control | [7] 101 % of control | [8] 91 % of control | [9] 101 % of control

O=C(NC(=S)Nc1ccccc1Cl)c1ccc(Cl)cc1
inactive: endpoint: mean survival time, dose: 100.0 mg/kg/injection, schedule: Q04DX002 (ip), vehicle: saline with Tween-80 103 % of control | endpoint: mean survival time, dose: 200.0 mg/kg/injection, schedule: Q04DX002 (ip), vehicle: saline with Tween-80 88 % of control | endpoint: mean survival time, dose: 400.0 mg/kg/injection, schedule: Q04DX002 (ip), vehicle: saline with Tween-80 88 % of control

O=C(NC1c2ccccc2-c2ccccc21)C(F)(F)F
inactive: [1] 96 % of control | [2] 99 % of control | [3] 97 % of control | [4] 99 % of control | [8] 100 % of control | [5] 97 % of control

CS(C)=O.[Cl-].[Cl-].[NH-]CC(O)C[N-]CC(O)CN.[Pt+4] (stereo not given)
inactive: endpoint: median survival time, dose: 10.0 mg/kg/injection, schedule: Q04DX003 (ip), vehicle: saline 97 % of control | endpoint: median survival time, dose: 20.0 mg/kg/injection, schedule: Q04DX003 (ip), vehicle: saline 111 % of control | endpoint: median survival time, dose: 40.0 mg/kg/injection, schedule: Q04DX003 (ip), vehicle: saline 108 % of control | endpoint: median survival time, dose: 50.0 mg/kg/injection, schedule: Q04DX003 (ip), vehicle: saline 94 % of control | endpoint: median survival time, dose: 80.0 mg/kg/injection, schedule: Q04DX003 (ip), vehicle: saline 98 % of control

O=C(O)CCCc1ccc(Cl)cc1
inactive: [6] 106 % of control | [7] 106 % of control | [9] 98 % of control

Oc1ccccc1/C=N/c1nc(-c2ccccc2)cs1
inactive: [10] 86 % of control | [11] 107 % of control | [12] 93 % of control

O=C1C=CC(=O)N1c1ccc(F)cc1 (tested in a mixture with another compound)
inactive: [13] 96 % of control | [1] 91 % of control | [3] 86 % of control

NC(CS/C=C\C(=O)O)C(=O)O (stereo not given)
inactive: [2] 101 % of control | [5] 93 % of control

O=P1(N(CCCl)CCCl)NCCCO1.[Cl][Sb]([Cl])[Cl] (stereo not given)
inactive: endpoint: mean survival time, dose: 31.25 mg/kg/injection, schedule: Q01DX001 (ip), vehicle: olive oil, sesame oil, peanut oil 109 % of control | endpoint: mean survival time, dose: 62.5 mg/kg/injection, schedule: Q01DX001 (ip), vehicle: olive oil, sesame oil, peanut oil 113 % of control | endpoint: mean survival time, dose: 125.0 mg/kg/injection, schedule: Q01DX001 (ip), vehicle: olive oil, sesame oil, peanut oil 109 % of control

CC1(CO)CCCC2(C)C3=CC(=O)CCC3CCC12 (stereo not given)
inactive: [10] 95 % of control | [11] 101 % of control | [12] 97 % of control

OCCNc1c(Cl)ccc(Cl)c1Cl
inactive: [13] 107 % of control | [1] 103 % of control | [3] 98 % of control

[Cl][Hg][c]1ccco1
inactive: endpoint: mean survival time, dose: 1.25 mg/kg/injection, schedule: Q01DX001 (ip), vehicle: Klucel (hydroxypropylcellulose) (HPC) 100 % of control | endpoint: mean survival time, dose: 2.5 mg/kg/injection, schedule: Q01DX001 (ip), vehicle: Klucel (hydroxypropylcellulose) (HPC) 96 % of control | endpoint: mean survival time, dose: 5.0 mg/kg/injection, schedule: Q01DX001 (ip), vehicle: Klucel (hydroxypropylcellulose) (HPC) 97 % of control

CNC1CC2CCC1(C)C2(C)C (stereo not given)
inactive: endpoint: mean survival time, dose: 25.0 mg/kg/injection, schedule: Q04DX002 (ip), vehicle: saline 101 % of control | endpoint: mean survival time, dose: 50.0 mg/kg/injection, schedule: Q04DX002 (ip), vehicle: saline 112 % of control | endpoint: mean survival time, dose: 100.0 mg/kg/injection, schedule: Q04DX002 (ip), vehicle: saline 96 % of control

CC(C#N)(Nc1ccccc1)c1ccccc1 (stereo not given)
inactive: [6] 102 % of control | [7] 103 % of control | [9] 96 % of control

CCCCCC(=O)C(C)C(C)C (stereo not given)
inactive: [13] 97 % of control | [1] 97 % of control | [3] 97 % of control

CCOC(=O)Nc1ccccc1[N+](=O)[O-]
inactive: endpoint: mean survival time, dose: 100.0 mg/kg/injection, schedule: Q04DX003 (ip), vehicle: other 98 % of control | endpoint: mean survival time, dose: 200.0 mg/kg/injection, schedule: Q04DX003 (ip), vehicle: other 102 % of control | endpoint: mean survival time, dose: 400.0 mg/kg/injection, schedule: Q04DX003 (ip), vehicle: other 98 % of control

CC(=O)CC(Br)CBr (stereo not given)
inactive: [2] 96 % of control

O=C(N/N=C/c1cccc([N+](=O)[O-])c1)c1ccc(Cl)cc1Cl
inactive: [1] 100 % of control | [3] 97 % of control | [8] 100 % of control
